Source: patent US6365753B1, “Phthalimides and herbicide containing the same as active component” (Mitsubishi Chemical Corporation, priority 1998, dated 2002)

How the values were obtained:
Assay type in all cases: in vivo
Galium spurium = test: Foliar treatment test (3) post emergence application; conditions: 3.0 to 4.0-leaf stage, 0.125% X-77, 21st day, index
Description: (§1) Volcanic ash soil from a field was put in a resin-made pot having an area of 200 cm^2. After fertilization, the seeds of Galim spurium, Brassica juncea, and wheat were cast on the soil and covered with the soil uniformly. Cultivation was continued in a greenhouse until the plants reached to the 3.0 to 4.0-leaf stage.
(§2) The emulsifiable concentrate comprising compound No. 5 of the present invention, comparative compound (B) or comparative compound (C) as an active ingredient which was prepared in accordance with Formulation Example 3 was diluted with water containing 0.125% of a spreading agent X-77 (trade name, Valent USA Co.) so that a spray of 250 L/ha might give a prescribed amount of the active ingredient. The diluted composition was uniformly sprayed to the Galium spurium plant, the Brassica juncea plant, and the wheat plant by means of a small-sized power pressure spray.
(§3) Thereafter, cultivation was continued in the greenhouse, and the herbicidal effect and the injury to the crop were examined on the 21st day from the treatment. The herbicidal effect and the injury to the crop were evaluated on the same criteria as in Test Example 4.

Brassica juncea [1] = test: as above; conditions: 3.0 to 4.0-leaf stage, 0.125% X-77, 21st day, index
Description: as §1, §2, §3

wheat = test: Foliar treatment test (3) post emergence application, crop injury; conditions: 3.0 to 4.0-leaf stage, 0.125% X-77, 21st day, index
Description: as §1, §2, §3

Ipomoea purpurea = test: Foliar treatment test (1) post-emergence application; conditions: foliar treatment post-emergence at 1.0- to 2.0-leaf stage, 10 g/a active ingredient, 21st day from treatment; herbicidal index; further: ranges in brackets are in %
Description: (§4) Volcanic ash soil from a field was put in a resin-made pot having an area of 200 cm^2. After fertilization, the seeds of Brassica juncea, Ipomoea purpurea, Echinochloa crus-galli and Alopeculus aequalis were cast on the soil and uniformly covered with the soil.
(§5) Cultivation was continued in a greenhouse, and when the weeds reached the 1.0- to 2.0-leaf stage, a prescribed amount of the emulsifiable concentrate comprising the compound of the invention as an active ingredient which was prepared in Formulation Example 3 as diluted with water was sprayed uniformly to the weeds by means of a small-sized power pressure spray to give 10 g of the active ingredient per are.
(§6) Thereafter, cultivation was further continued in the greenhouse, and the herbicidal effect was examined on the 21st day from the treatment. The results obtained are shown in Table 6 (the compound numbers in Table 6 correspond to those in Tables 1 and 2). The herbicidal effect was evaluated based on the same criteria as in Test Example 1.

Brassica juncea [2] = test: as above; conditions: foliar treatment post-emergence at 1.0- to 2.0-leaf stage, 10 g/a active ingredient, 21st day from treatment; herbicidal index
Description: as §4, §5, §6

Echinochloa crus-galli = test: as above; conditions: foliar treatment post-emergence at 1.0- to 2.0-leaf stage, 10 g/a active ingredient, 21st day from treatment; herbicidal index; further: ranges in brackets are in %
Description: as §4, §5, §6

Alopeculus aequalis = test: as above; conditions: foliar treatment post-emergence at 1.0- to 2.0-leaf stage, 10 g/a active ingredient, 21st day from treatment; herbicidal index; further: ranges in brackets are in %
Description: as §4, §5, §6

Digitaria ciliaris = test: Soil treatment test pre-emergence application; conditions: 10 g/a active ingredient, 28th day from treatment, herbicidal index; further: ranges in brackets are in %
Description: (§7) Volcanic ash soil from a field was put in a resin-made pot having an area of 200 cm^2. After fertilization, soil previously mixed uniformly with the seeds of Digitaria ciliaris, Setaria viridis, Chenopodium album and Polygonum lapathifolium was scattered on the soil. The emulsifiable concentrate comprising the compound of the invention as an active ingredient which was obtained in Formulation Example 3 was diluted with water, and a prescribed amount of the diluted composition was sprayed uniformly to the surface of the soil by means of a small-sized power pressure spray to give 10 g of the active ingredient per are.
as §6, with “was” for “was further”, “in a” for “in the”, “the 28th” for “the 21st”, “Table 5” for “Table 6”

Chenopodium album = test: Soil treatment test pre-emergence application; conditions: 10 g/a active ingredient, 28th day from treatment, herbicidal index; further: ranges in brackets are in %
Description: as §7
as §6, with “was” for “was further”, “in a” for “in the”, “the 28th” for “the 21st”, “Table 5” for “Table 6”

Polygonum lapathifolium = test: Soil treatment test pre-emergence application; conditions: 10 g/a active ingredient, 28th day from treatment, herbicidal index; further: ranges in brackets are in %
Description: as §7
as §6, with “was” for “was further”, “in a” for “in the”, “the 28th” for “the 21st”, “Table 5” for “Table 6”

Setaria viridis = test: Soil treatment test pre-emergence application; conditions: 10 g/a active ingredient, 28th day from treatment, herbicidal index; further: ranges in brackets are in %
Description: as §7
as §6, with “was” for “was further”, “in a” for “in the”, “the 28th” for “the 21st”, “Table 5” for “Table 6”

Row | SMILES | Herbicidal Effect Galium spurium (Galium spurium; 12.5 ga.i./ha) | Herbicidal Effect Galium spurium (Galium spurium; 25.0 ga.i./ha) | Herbicidal Effect Galium spurium (Galium spurium; 50.0 ga.i./ha) | Herbicidal Effect Brassica juncea (Brassica juncea [1]; 12.5 ga.i./ha) | Herbicidal Effect Brassica juncea (Brassica juncea [1]; 25.0 ga.i./ha) | Herbicidal Effect Brassica juncea (Brassica juncea [1]; 50.0 ga.i./ha) | Crop Injury Wheat (wheat; 12.5 ga.i./ha) | Crop Injury Wheat (wheat; 25.0 ga.i./ha) | Crop Injury Wheat (wheat; 50.0 ga.i./ha) | Herbicidal Effect Ipompoea-purpurea (Ipomoea purpurea) | Herbicidal Effect Brassica juncea (Brassica juncea [2]) | Herbicidal Effect Echinochloa crus-galli (Echinochloa crus-galli) | Herbicidal Effect Alopeculus sequalis (Alopeculus aequalis) | Herbicidal Effect Digitaria ciliaris (Digitaria ciliaris) | Herbicidal Effect Chenopodium album (Chenopodium album) | Herbicidal Effect Polygonum lapathifolium (Polygonum lapathifolium) | Herbicidal Effect Setaria viridis (Setaria viridis)
1 | CCO/N=C(/COc1cc(N2C(=O)c3ccccc3C2=O)c(F)cc1Cl)C(=O)OCC [Comparative Compound (B)] | 9 (90-99) | 9 (90-99) | 10 (100) | 9 (90-99) | 10 (100) | 10 (100) | 3 (20-29) | 3 (20-29) | 4 (30-39) |  |  |  |  |  |  |  | 
2 | CCOC(=O)C(Cl)Cc1cc(-n2nc(C)n(C(F)F)c2=O)c(F)cc1Cl (stereo not drawn) [Comparative Compound (C), Carfentrazone-ethyl] | 10 (100) | 10 (100) | 10 (100) | 9 (90-99) | 10 (100) | 10 (100) | 3 (20-29) | 4 (30-39) | 6 (60-69) |  |  |  |  |  |  |  | 
3 | COC(=O)C(Cl)Cc1cc(N2C(=O)c3ccccc3C2=O)ccc1Cl (stereo not drawn) [Compound 1] |  |  |  |  |  |  |  |  |  | 5 (91-100) | 5 (91-100) | 1 (6-30) | 1 (6-30) |  |  |  | 
4 | COC(=O)C(Cl)Cc1cc(N2C(=O)c3ccc(F)cc3C2=O)ccc1Cl (stereo not drawn) [Compound 2] |  |  |  |  |  |  |  |  |  | 5 (91-100) | 5 (91-100) | 2 (31-50) | 1 (6-30) |  |  |  | 
5 | O=C(O)C(Cl)Cc1cc(N2C(=O)c3ccccc3C2=O)c(F)cc1Cl (stereo not drawn) [Compound 3, 2-Chloro-3-(2-chloro-4-fluoro-5-pthalimidophenyl)propionic Acid] |  |  |  |  |  |  |  |  |  | 5 (91-100) | 5 (91-100) | 1 (6-30) | 1 (6-30) | 0 (0-5) | 5 (91-100) | 5 (91-100) | 0 (0-5)
6 | COC(=O)C(Cl)Cc1cc(N2C(=O)c3ccccc3C2=O)c(F)cc1Cl (stereo not drawn) [Compound 4, Methyl 2-Chloro-3-(2-chloro-4-fluoro-5-phthalimidophenyl)propionate] |  |  |  |  |  |  |  |  |  | 5 (91-100) | 5 (91-100) | 2 (31-50) | 1 (6-30) | 0 (0-5) | 5 (91-100) | 5 (91-100) | 0 (0-5)
